The text below walks through data of patent US11872202B2, “Pleuromutilin cinnamic acid ester compounds with activities against antibiotic-resistant infections” (SHAANXI UNIVERSITY OF SCIENCE AND TECHNOLOGY, priority 2021, dated 2024).

Holding throughout (assay type): cell-based
Series [1] is described as follows: In vitro cytotoxicity, CCK-8 method. The following applies: human, read-out: median inhibitory concentration (IC50), cytotoxicity. As to the method: The in vitro cytotoxicity of pleuromutilin easters was determined by a CCK-8 method (the kit used was purchased from Shanghai Xige Biotechnology Co., Ltd.). Take healthy HepG2, HEK293 and A549 cell culture fluids (the cells used were from the American type culture collection (ATCC), and the used cell culture fluids were purchased from Thermo Fisher Scientific (China) Co., Ltd.), inoculate in a sterile 96-well cell culture plate, 180 μL/well, ensure that the number of cells is 1*10^4/well, place in a 37° C. CO2 incubator with a volume fraction of 5%, and culture for 24 h until the cells completely adhered. Add the test and control solutions, 20 µL per well, set 6 duplicate wells in parallel, and incubate at 37° C. in a CO2 incubator with a volume fraction of 5% at 37° C. for 24 h, and observe the cells under a microscope. Add 20 μL of 5 g/L CCK-8 solution to each well, and continue to culture for 4 h. The culture was terminated, the culture medium in the wells was gently aspirated, 100 μL of dimethyl sulfoxide was added to each well, and the wells were shaken at low speed for 10 min on a shaker to fully dissolve the crystals. The absorbance value was measured, and the half inhibitory concentration (IC50) was then calculated. The cytotoxicity to HepG2, HEK293 and A549 cells was evaluated according to the half inhibitory concentration (IC50).

The subject of series [2] is Staphylococcus aureus ATCC25923. Nature of the series: MIC, micro-broth dilution method. The following applies: Staphylococcus aureus ATCC25923; 37° C., 20-22 h; read-out: Minimum inhibitory concentration. As to the method:
(§1) The minimum inhibitory concentration (MIC) of pleuromutilin cinnamate easters and their starting materials was tested by a micro-broth dilution method, with retamoline, vornimulin and tiamulin as positive controls.
(§2) The experimental strains included Gram-positive bacteria: Methicillin-sensitive Staphylococcus epidermidis ATCC12228, Staphylococcus aureus ATCC29213 and ATCC25923, and Methicillin-resistant Staphylococcus aureus ATCC33591; Gram-negative bacteria: Acinetobacter baumannii ATCC19606 and E. coli Bacillus ATCC25922 (the strains used were from the American type culture collection (ATCC)).
For orientation: Dilution methods test growth across graded concentrations, often in twofold steps.

The subject of series [3] is Escherichia coli ATCC25922. The series is described as follows: MIC, micro-broth dilution method. The following applies: Escherichia coli ATCC25922; 37° C., 20-22 h; read-out: Minimum inhibitory concentration. As to the method:
as §1, §2

The test system of series [4] is Staphylococcus aureus ATCC29213. Nature of the series: MIC, micro-broth dilution method. The following applies: Staphylococcus aureus ATCC29213; 37° C., 20-22 h; read-out: Minimum inhibitory concentration. As for the experimental part: as §1, §2
The test system of series [5] is Methicillin-resistant Staphylococcus aureus ATCC33591. Nature of the series: MIC, micro-broth dilution method. The following applies: Methicillin-resistant Staphylococcus aureus ATCC33591; 37° C., 20-22 h; read-out: Minimum inhibitory concentration. As for the experimental part:
as §1, §2

The subject of series [6] is Methicillin-sensitive Staphylococcus epidermidis ATCC12228. Nature of the series: MIC, micro-broth dilution method. The following applies: for MIC: Methicillin-sensitive Staphylococcus epidermidis ATCC12228, 37° C., 20-22 h, read-out: Minimum inhibitory concentration; for inhibitory effect compared with the three tested positive controls: methicillin-sensitive Staphylococcus epidermidis, statement in words from Table 1. As for the experimental part: as §1, §2

Series [7] has as its system Acinetobacter baumannii ATCC19606. Nature of the series: MIC, micro-broth dilution method. The note with it: for MIC: Acinetobacter baumannii ATCC19606, 37° C., 20-22 h, read-out: Minimum inhibitory concentration; for inhibition compared with tiamulin: Acinetobacter baumannii, statement in words from Table 1. As for the experimental part:
as §1, §2

Series [8] concerns the different bacteria tested. Nature of the series: MIC, micro-broth dilution method, overall comparison over all strains. The note with it: statement in words from Table 1. As for the experimental part: as §1, §2

Values after ≈ are worked out from the molar mass of the structure shown. Like-named read-outs stand apart in the source and are kept apart here.

On to `C=C[C@]1(C)C[C@@H](OC(=O)COC(=O)/C=C/c2cccc(C#N)c2)[C@]2(C)[C@H](C)CC[C@]3(CCC(=O)[C@H]32)[C@@H](C)[C@@H]1O` [Compound 5, (E)-2-(((3aR,4R,5R,8S,9R,12R)-8-hydroxy-4,7,9,12-tetramethyl-3-oxo-7-vinyldecahydro-4,9a-propanocyclopenta[8]annulen-5-yl)oxy)-2-oxoethyl 3-(3-cyanophenyl)acrylate], for which the IC50 at 24 h is greater than 200 µM in series [1] (A549 cells), 29.2 µM in series [1] (HEK293 cells) and 78.5 µM in series [1] (HepG2 cells). The MIC in series [2] is 2 µg/mL (≈ 3.75 µM); in series [3] it was 64 µg/mL (≈ 120 µM); in series [4], 8 µg/mL (≈ 15 µM); in series [5], 16 µg/mL (≈ 30 µM); in series [6], 2 µg/mL (≈ 3.75 µM); in series [7], 128 µg/mL (≈ 240 µM). Besides, the “inhibitory effect compared with the three tested positive controls” value in series [6] is “better than that of the positive controls”.

Turning to `C=C[C@]1(C)C[C@@H](OC(=O)COC(=O)/C=C/c2ccc(OC)cc2)[C@]2(C)[C@H](C)CC[C@]3(CCC(=O)[C@H]32)[C@@H](C)[C@@H]1O` [Compound 4, (E)-2-(((3aR,4R,5R,8S,9R,12R)-8-hydroxy-4,7,9,12-tetramethyl-3-oxo-7-vinyldecahydro-4,9a-propanocyclopenta[8]annulen-5-yl)oxy)-2-oxoethyl 3-(4-methoxyphenyl)acrylate], the results for the IC50 at 24 h in series [1] (A549 cells), in series [1] (HEK293 cells) and in series [1] (HepG2 cells) were 50.8 µM, 90.2 µM and 83.7 µM, respectively. Besides, the MIC in series [2] was 4 µg/mL (≈ 7.43 µM); in series [3], 32 µg/mL (≈ 59.4 µM); in series [4], 8 µg/mL (≈ 14.9 µM); in series [5] it was 16 µg/mL (≈ 29.7 µM); in series [6], 2 µg/mL (≈ 3.71 µM); in series [7], greater than 256 µg/mL. In addition, the “inhibitory effect compared with the three tested positive controls” value in series [6] is “better than that of the positive controls”.

As for `C=C[C@]1(C)C[C@@H](OC(=O)COC(=O)/C=C/c2ccc([N+](=O)[O-])cc2)[C@]2(C)[C@H](C)CC[C@]3(CCC(=O)[C@H]32)[C@@H](C)[C@@H]1O` [Compound 1, (E)-2-(((3aR,4R,5R,8S,9R,12R)-8-hydroxy-4,7,9,12-tetramethyl-3-oxo-7-vinyldecahydro-4,9a-propanocyclopenta[8]annulen-5-yl)oxy)-2-oxoethyl 3-(4-nitrophenyl)acrylate], the IC50 at 24 h in series [1] (A549 cells), in series [1] (HEK293 cells) and in series [1] (HepG2 cells) was greater than 200 µM in each case. Besides, the MIC was 8 µg/mL (≈ 14.4 µM) in series [2]; 32 µg/mL (≈ 57.8 µM) in series [3]; 2 µg/mL (≈ 3.61 µM) in series [4]; 4 µg/mL (≈ 7.22 µM) in series [5]; 2 µg/mL (≈ 3.61 µM) in series [6]; 64 µg/mL (≈ 116 µM) in series [7]. Moreover, in series [6], the “inhibitory effect compared with the three tested positive controls” value is “better than that of the positive controls”. In addition, the “inhibition compared with tiamulin” value in series [7] is “as much as tiamulin”.

Take `C=C[C@]1(C)C[C@@H](OC(=O)COC(=O)/C=C/c2ccc(N(C)C)cc2)[C@]2(C)[C@H](C)CC[C@]3(CCC(=O)[C@H]32)[C@@H](C)[C@@H]1O` [Compound 10, (E)-2-(((3aR,4R,5R,8S,9R,12R)-8-hydroxy-4,7,9,12-tetramethyl-3-oxo-7-vinyldecahydro-4,9a-propanocyclopenta[8]annulen-5-yl)oxy)-2-oxoethyl 3-(4-(dimethylamino)phenyl)acrylate]: the “inhibitory activity compared with the three tested positive controls” value in series [8] is “better or equal to that of the three tested positive controls”. The IC50 at 24 h in series [1] (A549 cells) is greater than 200 µM; in series [1] (HEK293 cells) it was 34.6 µM; in series [1] (HepG2 cells), greater than 200 µM. In addition, the MIC amounted to 1 µg/mL (≈ 1.81 µM) in series [2]; 16 µg/mL (≈ 29 µM) in series [3]; 2 µg/mL (≈ 3.63 µM) in series [4]; 2 µg/mL (≈ 3.63 µM) in series [5]; 1 µg/mL (≈ 1.81 µM) in series [6]; 32 µg/mL (≈ 58 µM) in series [7]. Further, the “inhibitory effect compared with the three tested positive controls” value in series [6] was “better than that of the positive controls”. Moreover, the “inhibition compared with tiamulin” value in series [7] is listed as “as much as tiamulin”.

`C=C[C@]1(C)C[C@@H](OC(=O)CSCCN(CC)CC)[C@]2(C)[C@H](C)CC[C@]3(CCC(=O)[C@H]32)[C@@H](C)[C@@H]1O` [Tiamulin, reference compound]: the IC50 at 24 h in series [1] (A549 cells) was greater than 200 µM; in series [1] (HEK293 cells) it was 84.9 µM; in series [1] (HepG2 cells), 27.1 µM. In addition, the MIC is 64 µg/mL (≈ 130 µM) in series [2]; 128 µg/mL (≈ 259 µM) in series [3]; 256 µg/mL (≈ 518 µM) in series [4]; 128 µg/mL (≈ 259 µM) in series [5]; 16 µg/mL (≈ 32.4 µM) in series [6]; 64 µg/mL (≈ 130 µM) in series [7].

Regarding `C=C[C@]1(C)C[C@@H](OC(=O)COC(=O)/C=C/c2cc(Br)ccc2F)[C@]2(C)[C@H](C)CC[C@]3(CCC(=O)[C@H]32)[C@@H](C)[C@@H]1O` [Compound 9, (E)-2-(((3aR,4R,5R,8S,9R,12R)-8-hydroxy-4,7,9,12-tetramethyl-3-oxo-7-vinyldecahydro-4,9a-propanocyclopenta[8]annulen-5-yl)oxy)-2-oxoethyl 3-(5-bromo-2-fluorophenyl)acrylate], the MIC in series [2] came to 16 µg/mL (≈ 26.4 µM); in series [3], 64 µg/mL (≈ 106 µM); in series [4] it was 32 µg/mL (≈ 52.8 µM); in series [5], 64 µg/mL (≈ 106 µM); in series [6], 64 µg/mL (≈ 106 µM); in series [7], 128 µg/mL (≈ 211 µM).

`C=C[C@]1(C)C[C@@H](OC(=O)COC(=O)/C=C/c2cccc(OCc3ccccc3)c2)[C@]2(C)[C@H](C)CC[C@]3(CCC(=O)[C@H]32)[C@@H](C)[C@@H]1O` [Compound 13, (E)-2-(((3aR,4R,5R,8S,9R,12R)-8-hydroxy-4,7,9,12-tetramethyl-3-oxo-7-vinyldecahydro-4,9a-propanocyclopenta[8]annulen-5-yl)oxy)-2-oxoethyl 3-(3-(benzyloxy)phenyl)acrylate]: the MIC in series [2] is 16 µg/mL (≈ 26 µM); in series [3], greater than 256 µg/mL; in series [4], 32 µg/mL (≈ 52.1 µM); in series [5], 128 µg/mL (≈ 208 µM); in series [6], 32 µg/mL (≈ 52.1 µM); in series [7], 64 µg/mL (≈ 104 µM). Further, the “inhibition compared with tiamulin” value in series [7] is “as much as tiamulin”.

Regarding `C=C[C@]1(C)C[C@@H](OC(=O)COC(=O)/C=C/c2ccc(F)c(F)c2F)[C@]2(C)[C@H](C)CC[C@]3(CCC(=O)[C@H]32)[C@@H](C)[C@@H]1O` [Compound 12, (E)-2-(((3aR,4R,5R,8S,9R,12R)-8-hydroxy-4,7,9,12-tetramethyl-3-oxo-7-vinyldecahydro-4,9a-propanocyclopenta[8]annulen-5-yl)oxy)-2-oxoethyl 3-(2,3,4-trifluorophenyl)acrylate], the MIC came out at 32 µg/mL (≈ 56.9 µM) in series [2]; 64 µg/mL (≈ 114 µM) in series [3]; 64 µg/mL (≈ 114 µM) in series [4]; 128 µg/mL (≈ 228 µM) in series [5]; 16 µg/mL (≈ 28.4 µM) in series [6]; 128 µg/mL (≈ 228 µM) in series [7].

Regarding `C=C[C@]1(C)C[C@@H](OC(=O)COC(=O)/C=C/c2ccc(F)c(Cl)c2)[C@]2(C)[C@H](C)CC[C@]3(CCC(=O)[C@H]32)[C@@H](C)[C@@H]1O` [Compound 20, (E)-2-(((3aR,4R,5R,8S,9R,12R)-8-hydroxy-4,7,9,12-tetramethyl-3-oxo-7-vinyldecahydro-4,9a-propanocyclopenta[8]annulen-5-yl)oxy)-2-oxoethyl 3-(3-chloro-4-fluorophenyl)acrylate], the MIC was 16 µg/mL (≈ 28.5 µM) in series [2]; 64 µg/mL (≈ 114 µM) in series [3]; 32 µg/mL (≈ 57 µM) in series [4]; 64 µg/mL (≈ 114 µM) in series [5]; 32 µg/mL (≈ 57 µM) in series [6]; greater than 256 µg/mL in series [7].
